The text below walks through data of US8410141B2, “Insecticidal arylpyrrolines” (Bayer Cropscience AG, priority 2009, dated 2013).

Holding throughout (type): in vivo
Test [1] has as its system Tobacco Cutworm (Spodoptera litura) Larvae. The test can be described thus: Test against tobacco cutworm (Spodoptera litura) larvae, leaf immersion. The note with it: 100 ppm; sweet potato leaves immersed; third-instar larvae; after 7 days. Here is the method:
(§1) Unless not mentioned otherwise, the test solutions were prepared as follows:
(§2) Containing as solvent: Dimethylformamide, 3 parts by weight; and as emulsifier: Polyoxyethylene alkyl phenyl ether, 1 part by weight. To prepare the test solution, 1 part by weight of an active compound is mixed with the above-mentioned amount of solvent containing the above-mentioned amount of emulsifier, and the mixture is diluted with water to the desired concentration.
The leaves of sweet potato were immersed in the test solution at the appropriate concentration, and the leaves were dried in air. The leaves were then placed in a petri dish having a diameter of 9 cm, and ten third-instar larvae of tobacco cutworm were released therein. The petri dish was placed in a temperature-controlled chamber at 25° C. After 2 days and 4 days sweet potato leaves were additionally added. After 7 days, the number of dead larvae was counted to calculate the insecticidal activity. An insecticidal activity of 100% means that all larvae were killed, whereas an insecticidal activity of 0% means that no larva was killed. In the current test, the results of two petri dishes for each partition were averaged.

Test [2] concerns Two-Spotted Spider Mite (Tetranychus urticae). The test can be described thus: Test against two-spotted spider mite (Tetranychus urticae), spray. The conditions noted are these: 100 ppm; sprayed on kidney bean; adult mites; after 7 days. On the procedure:
as §1, §2
50 to 100 adult two-spotted spider mites were inoculated onto the leaves of kidney beans at the two-true leaf stage, which plant had been cultivated in a pot having a diameter of 6 cm. After one day, test solution at the appropriate concentration was sprayed thereon in a sufficient amount using a spray gun. After the spraying, the plant pot was placed inside a greenhouse, and after 7 days, the acaricidal activity was calculated. An acaricidal activity of 100% means that all mites were killed, whereas an acaricidal activity of 0% means that no mite was killed.

Test [3] has as its system Cucurbit Leaf Beetle (Aulacophora femoralis). The test can be described thus: Test against cucurbit leaf beetle (Aulacophora femoralis), leaf immersion. The note with it: 100 ppm; cucumber leaves immersed; second-instar larvae; after 7 days. On the procedure:
as §1, §2
Cucumber leaves were immersed in the test solution at the appropriate concentration, and the leaves were dried in air. The leaves were then placed in a plastic cup containing sterilized black soil, and five second-instar larvae of cucurbit leaf beetle were released therein. The plastic cup was placed in a temperature-controlled chamber at 25° C. After 7 days, the number of dead larvae was counted, and thus the insecticidal activity was calculated. An insecticidal activity of 100% means that all beetles were killed, whereas an insecticidal activity of 0% means that no beetle was killed.

In test [4] the test system is Tobacco Cutworm (Spodoptera litura) Larvae. The test can be described thus: Test against tobacco cutworm larvae, root systemicity. The note with it: 100 ppm; broccoli seedling roots dipped 3 days; second-instar larvae; after 4 days. On the procedure:
as §1, §2
The roots of seedling of broccoli at 1.2 leaf stage were dipped into the test solution at the appropriate concentration. After 3 days, the leaves were cut and placed in a petri dish having a diameter of 9 cm. And then five second-instar larvae of tobacco cutworm were released therein. The petri dish was placed in a temperature-controlled room at 25° C. After 4 days, the number of dead larvae was counted, to calculate the insecticidal activity. An insecticidal activity of 100% means that all larvae were killed, whereas an insecticidal activity of 0% means that no larva was killed.

`FC(F)(F)C1(c2cc(Cl)c(Cl)c(Cl)c2)CN=C(c2ccc(-n3cncn3)c(Br)c2)C1` (stereo not drawn) [1-31]: the insecticidal activity in test [1] and in test [3] was 100% each time. In addition, in test [2], the acaricidal activity rate is listed as 100%.

Consider `CCC(=O)NCc1ccc(C2=NCC(c3cc(Cl)c(Cl)c(Cl)c3)(C(F)(F)F)C2)cc1` (stereo not drawn) [2-169], for which the insecticidal activity in test [1] and in test [3] was 100% in each case. The same molecule yielded an acaricidal activity rate in test [2] of 100%.

With `CCC(=O)NC(C)c1ccc(C2=NCC(c3cc(C(F)(F)F)nc(C(F)(F)F)c3)(C(F)(F)F)C2)cc1` (stereo not drawn) [2-2872], the insecticidal activity in test [1] and in test [4] was 100% each time.

`Cc1ccc(C2(C(F)(F)F)CN=C(c3ccc(-n4cncn4)c(C#N)c3)C2)cc1[N+](=O)[O-]` (stereo not drawn) [1-174]: the acaricidal activity rate in test [2] turned out to be 100%.

In test [1], `Cc1cc(C2=NCC(c3cc(C(F)(F)F)cc(C(F)(F)F)c3)(C(F)(F)F)C2)ccc1CN` (stereo not drawn) [2-547] yielded an insecticidal activity of 100%.

On to `CC(=O)NCc1ccc(C2=NCC(c3cc(Cl)c(Cl)c(Cl)c3)(C(F)(F)F)C2)cc1` (stereo not drawn) [2-168], for which the insecticidal activity in test [1] and in test [3] was 100% throughout. In addition, the acaricidal activity rate in test [2] is on record as 100%.

Consider `CCC(=O)NCc1ccc(C2=NCC(c3cc(C(F)(F)F)cc(C(F)(F)F)c3)(C(F)(F)F)C2)cc1` (stereo not drawn) [2-647], for which the insecticidal activity in test [1], in test [3] and in test [4] was 100% throughout. The molecule further returned an acaricidal activity rate in test [2] of 100%.

As for `N#Cc1cc(C2=NCC(c3ccnc(Cl)c3)(C(F)(F)F)C2)ccc1-n1cncn1` (stereo not drawn) [1-484], in test [2], the acaricidal activity rate was found to be 100%. This molecule gave an insecticidal activity in test [3] of 100%.

On to `N#Cc1cc(C2=NCC(c3ccc(F)c(C(F)(F)F)c3)(C(F)(F)F)C2)ccc1-n1cncn1` (stereo not drawn) [1-4], for which the insecticidal activity in test [1], in test [3] and in test [4] was 100% throughout. The same molecule showed an acaricidal activity rate in test [2] of 100%.

In test [2], `Cc1cc([N+](=O)[O-])cc(C2(C(F)(F)F)CN=C(c3ccc(-n4cncn4)c(C#N)c3)C2)c1` (stereo not drawn) [1-180] gave an acaricidal activity rate of 100%.

With `CC(=O)NCc1ccc(C2=NCC(c3cc(C(F)(F)F)nc(C(F)(F)F)c3)(C(F)(F)F)C2)cc1Br` (stereo not drawn) [2-2732], the insecticidal activity in test [1] and in test [3] was 100% throughout. In test [2], this molecule displayed an acaricidal activity rate of 100%.

Consider `CS(=O)(=O)CC(=O)NCc1ccc(C2=NCC(c3cc(C(F)(F)F)nc(C(F)(F)F)c3)(C(F)(F)F)C2)cc1Br` (stereo not drawn) [2-2739], for which the insecticidal activity in test [1] and in test [3] was 100% throughout. This molecule had an acaricidal activity rate in test [2] of 100%.

`Cc1cc(C2=NCC(c3cc(Cl)c(Cl)c(Cl)c3)(C(F)(F)F)C2)ccc1CN` (stereo not drawn) [2-76] displayed an insecticidal activity in test [1] of 100%.

In the case of `N#Cc1cc(C2=NCC(c3cc(Cl)nc(C(F)(F)F)c3)(C(F)(F)F)C2)ccc1-n1cncn1` (stereo not drawn) [1-492], the insecticidal activity in test [1], in test [3] and in test [4] was 100% in each case. The same molecule returned an acaricidal activity rate in test [2] of 100%.

With `O=C(CC(F)(F)F)NCc1ccc(C2=NCC(c3cc(Cl)c(Cl)c(Cl)c3)(C(F)(F)F)C2)cc1` (stereo not drawn) [2-170], the insecticidal activity in test [1] and in test [3] was 100% throughout. In addition, the acaricidal activity rate in test [2] was found to be 100%.

`N#Cc1cc(C2=NCC(c3cc(Cl)c(Br)c(Cl)c3)(C(F)(F)F)C2)ccc1-n1cncn1` (stereo not drawn) [1-15]: the insecticidal activity in test [1] and in test [3] was 100% throughout. The molecule also displayed an acaricidal activity rate in test [2] of 100%.

With `FC(F)(F)c1cc(C2=NCC(c3cc(Cl)c(Cl)c(Cl)c3)(C(F)(F)F)C2)ccc1-n1cncn1` (stereo not drawn) [1-34], the insecticidal activity in test [1] and in test [3] was 100% in each case.

Regarding `FC(F)(F)C1(c2cc(Cl)c(Cl)c(Cl)c2)CN=C(c2ccc(-n3cncn3)nc2)C1` (stereo not drawn) [1-110], the insecticidal activity in test [1] and in test [3] was 100% throughout. In addition, in test [2], the acaricidal activity rate worked out at 100%.

`N#Cc1cc(C2=NCC(c3cc(Br)c4c(c3)OC(F)(F)O4)(C(F)(F)F)C2)ccc1-n1cncn1` (stereo not drawn) [1-496]: the insecticidal activity in test [1] and in test [3] was 100% throughout. In test [2], this molecule returned an acaricidal activity rate of 100%.

`N#Cc1cc(C2=NCC(c3ccnc(C(F)(F)C(F)(F)F)c3)(C(F)(F)F)C2)ccc1-n1cncn1` (stereo not drawn) [1-156]: the insecticidal activity in test [1] and in test [3] was 100% in each case. In addition, the acaricidal activity rate in test [2] is given as 100%.

On to `N#Cc1cc(C2=NCC(c3cc(Cl)cc(Cl)c3)(C(F)(F)Cl)C2)ccc1-n1cncn1` (stereo not drawn) [1-506], for which the insecticidal activity in test [1] and in test [3] was 100% each time. In addition, the acaricidal activity rate in test [2] was 100%.

Turning to `CSCC(=O)NCc1ccc(C2=NCC(c3cc(C(F)(F)F)nc(C(F)(F)F)c3)(C(F)(F)F)C2)cc1Br` (stereo not drawn) [2-2737], the insecticidal activity in test [1] and in test [3] was 100% each time. The molecule also registered an acaricidal activity rate in test [2] of 100%.

As to `N#Cc1cc(C2=NCC(c3cncc(C(F)(F)F)c3)(C(F)(F)F)C2)ccc1-n1cncn1` (stereo not drawn) [1-481], the insecticidal activity in test [1] and in test [3] was 100% in each case.

Regarding `FC(F)(F)C1(c2cc(Cl)nc(Cl)c2)CN=C(c2cnc(-n3cncn3)c(Cl)c2)C1` (stereo not drawn) [1-490], the insecticidal activity in test [1] and in test [3] was 100% in each case.

For the molecule `FC(F)(F)c1cc(C(F)(F)F)cc(C2(C(F)(F)F)CN=C(c3cnc(-n4cncn4)c(Cl)c3)C2)c1` (stereo not drawn) [1-491], the insecticidal activity in test [1] and in test [3] was 100% throughout.

Regarding `O=[N+]([O-])c1cc(C2=NCC(c3cc(Cl)c(Cl)c(Cl)c3)(C(F)(F)F)C2)ccc1-n1cncn1` (stereo not drawn) [1-35], the insecticidal activity in test [1] and in test [3] was 100% in each case. For the same molecule, the acaricidal activity rate in test [2] came out at 100%.

Turning to `N#Cc1cc(C2=NCC(c3cc(Cl)cc(Cl)c3Cl)(C(F)(F)F)C2)ccc1-n1cncn1` (stereo not drawn) [1-488], the insecticidal activity in test [1] and in test [3] was 100% each time. The molecule also had an acaricidal activity rate in test [2] of 100%.

For `CCC(=O)NCc1ccc(C2=NCC(c3cc(C(F)(F)F)nc(C(F)(F)F)c3)(C(F)(F)F)C2)cc1Br` (stereo not drawn) [2-2733, N-(4-{3-[2,6-bis(trifluoromethyl)pyridin-4-yl]-3-(trifluoromethyl)-3,4-dihydro-2H-pyrrol-5-yl}-2-bromobenzyl)propanamide], the insecticidal activity in test [1] and in test [3] was 100% in each case. Besides, the acaricidal activity rate in test [2] turned out to be 100%.

As for `CCC(=O)NCc1ccc(C2=NCC(c3cc(Cl)nc(Cl)c3)(C(F)(F)F)C2)cc1C(F)(F)F` (stereo not drawn) [2-2151], the insecticidal activity in test [1] and in test [3] was 100% in each case. The acaricidal activity rate in test [2] turned out to be 100%.

For `N#Cc1cc(C2=NCC(c3cc(C(F)(F)F)cc(C(F)(F)F)c3)(C(F)(F)F)C2)cnc1-n1cncn1` (stereo not drawn) [1-494], the insecticidal activity in test [1] and in test [3] was 100% in each case.

As to `N#Cc1cc(C2=NCC(c3cc(OC(F)F)cc(C(F)(F)F)c3)(C(F)(F)F)C2)ccc1-n1cncn1` (stereo not drawn) [1-497], the insecticidal activity in test [1], in test [3] and in test [4] was 100% throughout.

On to `N#Cc1cc(C2=NCC(c3cc(C(F)(F)F)ccc3F)(C(F)(F)F)C2)ccc1-n1cncn1` (stereo not drawn) [1-482], for which the insecticidal activity in test [1] and in test [3] was 100% throughout. Further, in test [2], the acaricidal activity rate came to 100%.

`Cc1cc(C2=NCC(c3cc(C(F)(F)F)cc(C(F)(F)F)c3)(C(F)(F)F)C2)ccc1CNC(=O)OC(C)(C)C` (stereo not drawn) [2-548]: the insecticidal activity in test [1] and in test [3] was 100% throughout. Moreover, the acaricidal activity rate in test [2] was determined as 100%.

For `FC(F)(F)C1(c2cc(Cl)c(Cl)c(Cl)c2)CN=C(c2ccc(-n3cncn3)cc2)C1` (stereo not drawn) [1-27], the insecticidal activity in test [1] and in test [3] was 100% in each case. In test [2], this molecule returned an acaricidal activity rate of 100%.
